Results taken from patent US12195469B2, “Compounds having PDE9A inhibitory activity, and pharmaceutical uses thereof” (KOREA RESEARCH INSTITUTE OF CHEMICAL TECHNOLOGY, priority 2018, dated 2025).

Target: PDE9A (Homo sapiens (Human), UniProt O76083)
Experiment: PDE9A inhibition, fluorescence polarization assay (IMAP-FP screening express kit)
Assay type: biochemical
Conditions: for inhibition at 10 µM: 10 μM of the compound; for IC50: Fl-cGMP substrate 100 nM, PDE9A 5 ng/ml, 1 hour at room temperature
Procedure: The inhibitory activity of the representative compounds according to the present invention against phosphodiesterase 9A was tested based on the polarization assay (IMAP-FP screening express kit) provided by MDS (MDS Analytical Technologies, Sunyvale, CA, USA). As a buffer solution, a reaction solution (a reaction solution containing 0.01% Tween 20 provided by MDS was diluted 5 times, then 5 mM DTT is added) and a polarization detection solution (binding solution A and B provided by MDS were mixed at a ratio of 3:1 and IMAP binding reagent 1/600 was added) were prepared. 100 μM of the substrate (Fl-cGMP substrate; MDS) and 3.6 μg/ml of the enzyme PDE9A (ab54113; abcam) were prepared. 3.6 μg/ml PDE9A and 100 μM substrate were diluted to 20 ng/ml (final reaction concentration: 5 ng/ml) and 400 nM (final reaction concentration: 100 nM), respectively. The buffer solution used for all dilution and preparation processes was 1× reaction solution with 1 mM DTT added, and the polarization detection solution was used to induce polarization at the end.
The prepared samples were dispensed on black microplates (Multiwell 384 well plates, #3573, Corning Life Sciences, Lowell, MA, USA) using a 16-channel pipette (multi 16-channel, Finnpipette, Thermo Scientific, Essex, UK). The total reaction volume per well is 20 μl. At this time, 10 μl of 2% DMSO, 5 μl of substrate solution, and 5 μl of reaction solution were used as a negative control, and 10 μl of 2% DMSO, 5 μl of substrate solution, and 5 μl of PDE9A solution were used as a positive control. As the experimental group, 10 μl of the compound prepared in Example, 5 μl of the substrate solution, and 5 μl of the PDE9A solution were used. After pretreatment between the compound and the enzyme was performed for about 10 minutes before the enzyme-substrate reaction, 5 μl of cGMP was added to induce the enzyme reaction. During the reaction, each compound, enzyme, and substrate occupied 50%, 25%, and 25% of the total volume, respectively, and they were prepared at high concentrations of 2, 4, and 4 times, respectively, immediately before addition. After the enzymatic reaction, it was shaken lightly for 1 minute and the enzyme reaction was induced at room temperature for 1 hour. Then, 60 μl of a polarization detection solution prepared in advance was added to induce polarization.
Nanoparticles composed of trivalent metal ions are mixed in the fluorescence detection solution, which combines with phosphoric acid expose by enzymatic reaction to increase the molecular weight and induce polarization. After leaving for 2 hours at room temperature, the polarization (Fluorescence Polarization, FP) value was measured using a multilabel counter (Envision, PerkinElmer, Turku, Finland) (emission wavelength: P-535 nm, S-535 nm, excitation wavelength: 480 nm), and the result was expressed as an IC50 value, which is the concentration of the compound that inhibited PDE9A by 50% in vitro (Table 2).

Sequence of PDE9A (O76083 whole entry): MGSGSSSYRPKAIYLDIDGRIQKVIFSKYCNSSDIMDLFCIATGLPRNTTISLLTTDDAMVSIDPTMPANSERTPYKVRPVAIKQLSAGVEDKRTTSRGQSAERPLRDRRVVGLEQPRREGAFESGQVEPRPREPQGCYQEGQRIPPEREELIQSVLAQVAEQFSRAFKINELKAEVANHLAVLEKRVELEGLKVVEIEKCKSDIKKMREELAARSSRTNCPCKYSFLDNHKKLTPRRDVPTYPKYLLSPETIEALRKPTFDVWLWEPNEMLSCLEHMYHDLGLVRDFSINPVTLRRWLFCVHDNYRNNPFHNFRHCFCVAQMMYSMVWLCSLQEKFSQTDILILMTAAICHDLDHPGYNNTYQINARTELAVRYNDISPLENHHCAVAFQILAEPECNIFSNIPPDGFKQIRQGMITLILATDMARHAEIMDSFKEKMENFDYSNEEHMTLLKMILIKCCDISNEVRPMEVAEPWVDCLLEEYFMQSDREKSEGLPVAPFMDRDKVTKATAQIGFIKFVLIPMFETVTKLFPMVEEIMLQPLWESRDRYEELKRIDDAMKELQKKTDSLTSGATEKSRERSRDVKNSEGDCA

Row | Structure (SMILES) | inhibition at 10 µM [%] | IC50 [nM]
1 | O=c1[nH]c(SCc2nc3cc(Cl)cc(Cl)c3o2)nc2c1cnn2-c1ccccc1 [Example 32, 6-(((5,7-dichlorobenzo[d]oxazol-2-yl)methyl)thio)-1-phenyl-1,5-dihydro-4H-pyrazolo[3,4-d]pyrimidin-4-one] | 27.7 | –
2 | Cc1cc(C)c2oc(CSc3nc4c(cnn4-c4ccccc4)c(=O)[nH]3)nc2c1 [Example 33, 6-(((5,7-dimethylbenzo[d]oxazol-2-yl)methyl)thio)-1-phenyl-1,5-dihydro-4H-pyrazolo[3,4-d]pyrimidin-4-one] | – | 950
3 | COc1ccc2oc(CSc3nc4c(cnn4-c4ccccc4)c(=O)[nH]3)nc2c1 [Example 34, 6-(((5-methoxybenzo[d]oxazol-2-yl)methyl)thio)-1-phenyl-1,5-dihydro-4H-pyrazolo[3,4-d]pyrimidin-4-one] | – | 120
4 | COc1ccc2nc(CSc3nc4c(cnn4-c4ccccc4)c(=O)[nH]3)oc2c1 [Example 35, 6-(((6-methoxybenzo[d]oxazol-2-yl)methyl)thio)-1-phenyl-1,5-dihydro-4H-pyrazolo[3,4-d]pyrimidin-4-one] | 83.6 | –
5 | O=c1[nH]c(SCc2nc3cc(C(F)(F)F)ccc3o2)nc2c1cnn2-c1ccccc1 [Example 36, 1-phenyl-6-(((5-(trifluoromethyl)benzo[d]oxazol-2-yl)methyl)thio)-1,5-dihydro-4H-pyrazolo[3,4-d]pyrimidin-4-one] | – | 34100
6 | O=c1[nH]c(SCc2nc3ccc([N+](=O)[O-])cc3o2)nc2c1cnn2C1CCC(F)(F)CC1 [Example 37, 1-(4,4-difluorocyclohexyl)-6-(((6-nitrobenzo[d]oxazol-2-yl)methyl)thio)-1,5-dihydro-4H-pyrazolo[3,4-d]pyrimidin-4-one] | – | 74
7 | O=c1[nH]c(SCc2nc3cc([N+](=O)[O-])ccc3o2)nc2c1cnn2C1CCC(F)(F)CC1 [Example 38, 1-(4,4-difluorocyclohexyl)-6-(((5-nitrobenzo[d]oxazol-2-yl)methyl)thio)-1,5-dihydro-4H-pyrazolo[3,4-d]pyrimidin-4-one] | – | 45
8 | O=c1[nH]c(SCc2nc3c([N+](=O)[O-])cccc3o2)nc2c1cnn2C1CCC(F)(F)CC1 [Example 39, 1-(4,4-difluorocyclohexyl)-6-(((4-nitrobenzo[d]oxazol-2-yl)methyl)thio)-1,5-dihydro-4H-pyrazolo[3,4-d]pyrimidin-4-one] | – | 77
9 | O=c1[nH]c(SCc2nc3cc(Cl)c([N+](=O)[O-])cc3o2)nc2c1cnn2C1CCC(F)(F)CC1 [Example 40, 6-(((5-chloro-6-nitrobenzo[d]oxazol-2-yl)methyl)thio)-1-(4,4-difluorocyclohexyl)-1,5-dihydro-4H-pyrazolo[3,4-d]pyrimidin-4-one] | – | 1660
10 | Cc1cccc2oc(CSc3nc4c(cnn4C4CCC(F)(F)CC4)c(=O)[nH]3)nc12 [Example 41, 1-(4,4-difluorocyclohexyl)-6-(((4-methylbenzo[d]oxazol-2-yl)methyl)thio)-1,5-dihydro-4H-pyrazolo[3,4-d]pyrimidin-4-one] | – | 22
11 | CC(C)(C)c1ccc2oc(CSc3nc4c(cnn4C4CCC(F)(F)CC4)c(=O)[nH]3)nc2c1 [Example 42, 6-(((5-(tert-butyl)benzo[d]oxazol-2-yl)methyl)thio)-1-(4,4-difluorocyclohexyl)-1,5-dihydro-4H-pyrazolo[3,4-d]pyrimidin-4-one] | – | 130
12 | O=c1[nH]c(SCc2nc3cc(Cl)cc(Cl)c3o2)nc2c1cnn2C1CCC(F)(F)CC1 [Example 43, 6-(((5,7-dichlorobenzo[d]oxazol-2-yl)methyl)thio)-1-(4,4-difluorocyclohexyl)-1,5-dihydro-4H-pyrazolo[3,4-d]pyrimidin-4-one] | – | 120
13 | Cc1cc(C)c2oc(CSc3nc4c(cnn4C4CCC(F)(F)CC4)c(=O)[nH]3)nc2c1 [Example 44, 1-(4,4-difluorocyclohexyl)-6-(((5,7-dimethylbenzo[d]oxazol-2-yl)methyl)thio)-1,5-dihydro-4H-pyrazolo[3,4-d]pyrimidin-4-one] | – | 15
14 | COc1ccc2oc(CSc3nc4c(cnn4C4CCC(F)(F)CC4)c(=O)[nH]3)nc2c1 [Example 45, 1-(4,4-difluorocyclohexyl)-6-(((5-methoxybenzo[d]oxazol-2-yl)methyl)thio)-1,5-dihydro-4H-pyrazolo[3,4-d]pyrimidin-4-one] | – | 8
15 | COc1ccc2nc(CSc3nc4c(cnn4C4CCC(F)(F)CC4)c(=O)[nH]3)oc2c1 [Example 46, 1-(4,4-difluorocyclohexyl)-6-(((6-methoxybenzo[d]oxazol-2-yl)methyl)thio)-1,5-dihydro-4H-pyrazolo[3,4-d]pyrimidin-4-one] | – | 3
16 | O=c1[nH]c(SCc2nc3cc(C(F)(F)F)ccc3o2)nc2c1cnn2C1CCC(F)(F)CC1 [Example 47, 1-(4,4-difluorocyclohexyl)-6-(((5-(trifluoromethyl)benzo[d]oxazol-2-yl)methyl)thio)-1,5-dihydro-4H-pyrazolo[3,4-d]pyrimidin-4-one] | – | 120
17 | O=c1[nH]c(SCc2nc3ccc([N+](=O)[O-])cc3o2)nc2c1cnn2C1CCOCC1 [Example 48, 6-(((6-nitrobenzo[d]oxazol-2-yl)methyl)thio)-1-(tetrahydro-2H-pyran-4-yl)-1,5-dihydro-4H-pyrazolo[3,4-d]pyrimidin-4-one] | – | 23
18 | O=c1[nH]c(SCc2nc3cc([N+](=O)[O-])ccc3o2)nc2c1cnn2C1CCOCC1 [Example 49, 6-(((5-nitrobenzo[d]oxazol-2-yl)methyl)thio)-1-(tetrahydro-2H-pyran-4-yl)-1,5-dihydro-4H-pyrazolo[3,4-d]pyrimidin-4-one] | – | 32
19 | O=c1[nH]c(SCc2nc3c([N+](=O)[O-])cccc3o2)nc2c1cnn2C1CCOCC1 [Example 50, 6-(((4-nitrobenzo[d]oxazol-2-yl)methyl)thio)-1-(tetrahydro-2H-pyran-4-yl)-1,5-dihydro-4H-pyrazolo[3,4-d]pyrimidin-4-one] | – | 130
20 | O=c1[nH]c(SCc2nc3cc(Cl)c([N+](=O)[O-])cc3o2)nc2c1cnn2C1CCOCC1 [Example 51, 6-(((5-chloro-6-nitrobenzo[d]oxazol-2-yl)methyl)thio)-1-(tetrahydro-2H-pyran-4-yl)-1,5-dihydro-4H-pyrazolo[3,4-d]pyrimidin-4-one] | – | 35
21 | Cc1cccc2oc(CSc3nc4c(cnn4C4CCOCC4)c(=O)[nH]3)nc12 [Example 52, 6-(((4-methylbenzo[d]oxazol-2-yl)methyl)thio)-1-(tetrahydro-2H-pyran-4-yl)-1,5-dihydro-4H-pyrazolo[3,4-d]pyrimidin-4-one] | – | 17
22 | CC(C)(C)c1ccc2oc(CSc3nc4c(cnn4C4CCOCC4)c(=O)[nH]3)nc2c1 [Example 53, 6-(((5-(tert-butyl)benzo[d]oxazol-2-yl)methyl)thio)-1-(tetrahydro-2H-pyran4-yl)-1,5-dihydro-4H-pyrazolo[3,4-d]pyrimidin-4-one] | – | 45
23 | O=c1[nH]c(SCc2nc3cc(Cl)cc(Cl)c3o2)nc2c1cnn2C1CCOCC1 [Example 54, 6-(((5,7-dichlorobenzo[d]oxazol-2-yl)methyl)thio)-1-(tetrahydro-2H-pyran4-yl)-1,5-dihydro-4H-pyrazolo[3,4-d]pyrimidin-4-one] | – | 19
24 | Cc1cc(C)c2oc(CSc3nc4c(cnn4C4CCOCC4)c(=O)[nH]3)nc2c1 [Example 55, 6-(((5,7-dimethylbenzo[d]oxazol-2-yl)methyl)thio)-1-(tetrahydro-2H-pyran-4-yl)-1,5-dihydro-4H-pyrazolo[3,4-d]pyrimidin-4-one] | – | 10
25 | COc1ccc2nc(CSc3nc4c(cnn4C4CCOCC4)c(=O)[nH]3)oc2c1 [Example 56, 6-(((6-methoxybenzo[d]oxazol-2-yl)methyl)thio)-1-(tetrahydro-2H-pyran-4-yl)-1,5-dihydro-4H-pyrazolo[3,4-d]pyrimidin-4-one] | – | 3
